Test results: patent publication US7282348B2, “Kit for measuring cytotoxicity of a test agent” (Promega Corporation, priority 2002, dated 2007)

System: L929 cells
Test: Cytotoxicity of TNFα measured by LDH release (resazurin/diaphorase fluorescence)
Assay type: cell-based, mouse
Conditions: 20 hours incubation, in the presence of actinomycin D 1 μg/ml
Experimental: A reagent solution was prepared combining a lyophilized substrate mixture with the assay buffer containing resazurin, and all of the ingredients required to measure the release of LDH from dead cells. The buffer solvent used to reconstitute the lyophilized substrate mixture was designed so that when it is used to reconstitute the mixture, the resulting solution has an osmolarity that is compatible with living cells. That is, the resulting solution was isotonic with the cells. When used to reconstitute the lyophilized substrate mix, the reagent solution contained:
L929 cells were cultured in F-12/DME with 10% FBS and serially-diluted in a microtiter plate to yield duplicate wells containing approximately 0, 1562, 3125, 6250, 12,500, 25,000, and 50,000 cells per well, in 90 μl total volume. Cells were incubated at 37° C. for sufficient time to allow attachment (about 1.5 hours). […] The fluorescence of each well was then measured (excitation 560 nm, emission 590 nm).
L929 cells (2000 cells/well) were prepared using a 384-well tissue culture plate in F-12/DME medium supplemented with 10% horse serum. […] Fluorescence was then determined at 560 nm excitation and 590 nm emission.

TNFα
concentration at or above which fluorescence remained essentially constant (all of the cells lysed): about 0.125 ng/ml
observed fluorescence (560 nm excitation, 590 nm emission) as a measure of cell lysis (TNF concentrations from zero to about 0.125 ng/ml): rose in a TNFα dose-dependent fashion
